We go through one compound from US20220218614A1, “IONIZABLE CATIONIC LIPIDS AND LIPID NANOPARTICLES, AND METHODS OF SYNTHESIS AND USE THEREOF” (Tidal Therapeutics, Inc., priority 2020, published 2022).

Entries after “also recorded” stand apart in the source; their conditions may differ.

Data set [1] in a line: Hydrodynamic diameter and polydispersity of LNPs by dynamic light scattering (DLS), Zetasizer. The data set is classed as physicochemical. On the procedure: (§1) Samples of the LNPs produced in Example 2 were characterized to determine the average hydrodynamic diameter, zeta potential, and mRNA content (total and dye-accessible). The hydrodynamic diameter was determined by dynamic light scattering (DLS) using a Zetasizer model ZEN3600 (Malvern Pananalytical, UK). The zeta potential was measured in 5 mM pH 5.5 MES buffer and 5 mM pH 7.4 HEPES buffer by laser Doppler electrophoresis using the Zetasizer.

Data set [2] in a line: Quant-iT RiboGreen RNA assay: dye accessible and total (Triton) mRNA content, encapsulation. The data set is classed as physicochemical. On the procedure:
RNA content of the nanoparticles is measured using Thermo Fisher Quant-iT RiboGreen RNA Assay Kit. Dye accessible RNA, which includes both non-incorporated RNA and RNA that is near the surface of the nanoparticle, is measured by diluting the nanoparticles to approximately 1 μg/mL mRNA using HEPES buffered saline, and then adding Quant-iT reagent to the mixture. Total RNA content is measured by diluting the particles to 1 μg/mL mRNA using HEPES buffered saline, disrupting the nanoparticles by heating them to 60° C. for 30 minutes in HEPES buffered saline containing 0.5% Triton, and then adding Quant-It reagent. RNA is quantified by measuring fluorescence at 485/535 nm, and concentration is determined relative to a contemporaneously run RNA standard curve.

Data set [3] has as its system human T cells in PBMC-engrafted NSG mice. As to the kind of experiment: In vivo reprogramming of immune cells with DiI LNP expressing GFP in PBMC-humanized NSG mice. To be noted: 24 h. Set-up: species or system mouse. How it is done:
The NSG (NOD.Cg-Prkdcscid Il2rgtmlWjl/SzJ) mouse model was purchased from Jax Laboratories. 6-8 weeks old male mice were engrafted with 10 million PBMC of qualified donor in sterile PBS by tail vein injection. Individual body weight was monitored twice a week and blood samples were collected at appropriate interval to evaluate human immune cells engraftment.
50 μl blood was collected by tail vein bleed from each mouse. Red blood cells were lysed using Versalyse, RBC lysis solution following protocol as instructed by manufacturer (Beckman Coulter A09777). Cells were stained with hCD45 & hCD3 to determine the engraftment of human T-cells. After 15 days of PBMC injection, mice had anywhere from 30-60% huCD45+. These humanized mice were evaluated for reprogramming of immune cells by LNPs expressing DiI dye and GFP.
At time zero, mice (n=4 per group) were injected with GFP expressing DiI LNPs (by i. v. at 0.3 mg/kg or 0.1 mg/kg with appropriate buffer. At each time point, 24 or 48h depending on the example mice treated with either LNPs or buffer were sacrificed. Terminal blood and tissues collection was performed to determine DiI and GFP expression in different organs and immune cells as below.
At above specified timepoints, mice were anesthetized with CO2 before sample collection. For blood collection, the chest was opened to expose the heart. […]

Data set [4] concerns primary human T-cells (CD3+ T cells). Briefly: In vitro LNP transfection of primary human T-cells (GFP, Cy5 or DiI, viability by FACS). The data set is classed as cell-based. The text has this: This example describes the protocol used for in vitro LNP transfections in primary human T-cells. This method is used to assess LNP in vitro efficacy in relevant target cells (CD3+ T cells) by first transfecting the cells using LNPs loaded with mRNA encoding for a reporter gene, such as GFP mRNA, and then assessing transfection by measuring reporter gene expression by fluorescence-[…] cell sorting (FACS). Additionally, particle association with cells may be observed by in the same assay by labeling individual nanoparticle components, such as the mRNA, with a fluorescent dye, such as Cy5, and then observing cell/dye association by FACS.
CD3+ T cells were isolated from frozen peripheral blood mononuclear cells using an EasySep Human T Cell Isolation Kit on a RoboSep automated cell isolation system from […]. T cells were plated into a flat bottom 96-well plate in RPMI cell culture media supplemented with glutamax, 10% fetal bovine serum, and 40 ng/mL IL2. 100 μL of cell suspension was seeded per well at a density of 1M T cells/mL (100K T cells/well). Cells were allowed to rest for two hours in a 37° C. incubator, and then were transfected by gently adding 10 μL of a 22 μg/mL (by mRNA) nanoparticle suspension, resulting in a final mRNA concentration of 2 μg/mL. Cells were gently mixed with a pipette and then incubated for 24 hours in a 37° C. incubator. After incubation the cells were analyzed using an ThermoFisher Attune NXT flow cytometer. Cy5 was detected using a 638 nm laser with 670/14 nm filter. eGFP was detected using a 488 nm laser and a 530/30 nm filter. Data were analyzed using FlowJo software from BD biosciences. FACS data were first gated to exclude doublets and dead cells and then gated for GFP and Cy5. Gates for GFP+ and Cy5+were set such that a control sample (PBS treated T cells) was <0.1% positive.
CD3+ T cells were isolated from frozen peripheral blood mononuclear cells using an EasySep Human T Cell Isolation Kit on a RoboSep automated cell isolation system from […]. T cells were plated into a round bottom 96-well plate in RPMI cell culture media supplemented with glutamax, 10% fetal bovine serum, pen-strep, and 40 ng/mL IL-2. 100 μL of cell suspension was seeded per well at a density of 1M T cells/mL (100K T cells/well). Cells were allowed to rest for two hours in a 37° C. incubator, and then were transfected by gently adding 10 μL of a 22 μg/mL (by mRNA) nanoparticle suspension, resulting in a final mRNA concentration of 2 μg/mL (unless otherwise noted). Cells were gently mixed with a pipette and then incubated for 24 hours in a 37° C. incubator. After incubation the cells were diluted with FACS buffer (BD 554657) and analyzed using a BD Fortessa flow cytometer. Data were analyzed using FlowJo software from BD biosciences.

A short description of data set [5]: Zeta potential of LNPs by laser Doppler electrophoresis in 5 mM pH 5.5 MES and 5 mM pH 7.4 HEPES buffer. The data set is classed as physicochemical. Particulars: pH 5.5 MES and pH 7.4 HEPES buffer. How it is done:
as §1

The mark [6] stands for this setting: Table 10: Lipid 5 and Lipid 7 LNP, theoretical total mRNA 50 μg/mL.

Consider `CCCCC/C=C\C/C=C\CCCCCCCC(=O)OC[C@H](CCN(C)C)OC(=O)CCCCCCC/C=C\C/C=C\CCCCC` [Lipid 5], for which, in data set [1], the “polydispersity after antibody conjugate insertion” value is listed as less than 0.15. The “change in particle size and PDI upon conjugate insertion” value in data set [1] (insertion of anti-CD3 hSP34-PEG2k-DSPE conjugate) is listed as “larger change in hydrodynamic diameter (relative to Lipid 7 LNP); also recorded: larger change in hydrodynamic diameter (relative to Lipid 8 LNP)”. The “% Dye Accessible mRNA” value in data set [2] (Table 10: Lipid 5 and Lipid 7 LNP) amounted to 23%. The “Measured total (Triton method) mRNA” value in data set [2] (setting [6]) turned out to be 43 µg/mL; in data set [2] (Table 11A: Lipid 5, Lipid 8 and DLn-MC3-DMA LNP, vortexer mixing, theoretical total mRNA 42.5 ug/mL), 27 µg/mL. Moreover, the “Ribogreen Dye Accessible mRNA” value in data set [2] (setting [6]) was 10 µg/mL; in data set [2] (Table 11A: vortexer mixing, theoretical total mRNA 42.5 ug/mL) it was 4 µg/mL. Also, the “GFP expression of T cells in blood and lung” value in data set [3] (0.1 mg/kg, CD3 (hsp34) targeted LNP, DPG-PEG-1.5%) is “about 25%”. In addition, the “in vivo reprogramming (GFP, DiI) of T cells, in words” value in data set [3] (0.3 mg/kg (0.1 mg/kg in Example 30)) is on record as “superior for reprogramming T cells”. In data set [4] (0.5 ug/mL and 1.0 ug/mL dose/well), the “GFP MFI, fold relative to DLn-MC3-DMA” value is more than 5 fold. Besides, in data set [4] (all three dose levels (0.125, 0.5 and 2 ug mRNA/mL per well), PBS control about 50%), the T-cell viability was 40-45%. Further, the “GFP protein expression (% GFP+ cells, GFP MFI), in words” value in data set [4] (hSP34 targeted LNP with GFP mRNA, 24 hours) was “Dose dependent expression of GFP protein; also recorded: greater overall protein expression at all three mRNA dose levels; also recorded: outperformed both Lipid 8 and DLn-MC3-DMA”. In addition, the “LNP association with cells (% Cy5+/Cy5 MFI or % DiI+/DiI MFI), in words” value in data set [4] (hSP34 targeted LNP, 24 hours) is “equally associated with cells”. Besides, in data set [4] (hSP34 targeted LNP, 24 hours, dose as in the value), the “T-cell viability / tolerability, in words” value is “well tolerated by T-cells at and below 0.5 μg/mL dose; also recorded: consistently better tolerated by T-cells; also recorded: well tolerated by T-cells at and below 1.0 μg/mL dose; also recorded: better tolerated at higher doses; also recorded: least toxic at 1 ug/mL dose”. Also, the “LNP surface charge (zeta potential), in words” value in data set [5] was “positive zeta potential at pH 5.5, and either near neutral or slightly negative charge at pH 7.4”.
